What all share (format): cell-based
For experiment [1], the target named is T1, murine-derived wild-type (WT) GPR39 (Mus musculus, UniProt Q5U431).
T1 construct: 3HA (N); P2A-mCherry (C); expressed in transfected cells; host or cells: HEK293T, transient (Lipofectamine 3000)
T1 sequence (Q5U431 1-456): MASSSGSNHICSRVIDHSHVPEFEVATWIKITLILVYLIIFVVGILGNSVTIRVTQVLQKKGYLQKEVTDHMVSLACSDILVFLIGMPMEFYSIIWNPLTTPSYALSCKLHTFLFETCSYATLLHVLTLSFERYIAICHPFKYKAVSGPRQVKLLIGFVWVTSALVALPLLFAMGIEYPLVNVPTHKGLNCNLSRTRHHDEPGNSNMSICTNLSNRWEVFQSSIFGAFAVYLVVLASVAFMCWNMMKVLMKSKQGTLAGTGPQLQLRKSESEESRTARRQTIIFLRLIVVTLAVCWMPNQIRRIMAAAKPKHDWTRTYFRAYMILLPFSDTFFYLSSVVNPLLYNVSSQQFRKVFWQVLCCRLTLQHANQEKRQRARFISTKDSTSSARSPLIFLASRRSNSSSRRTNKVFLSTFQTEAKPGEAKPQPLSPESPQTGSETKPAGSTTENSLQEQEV
As to the kind of experiment: Calcium imaging on 293T cells transiently transfected with wild-type GPR39. The conditions noted are these: transiently transfected HEK293T cells. The method, then:
(§1) In the present application, the bile acid and/or derivative thereof is capable of activating the GPR39 independent of a zinc ion binding site. For example, in some embodiments, murine-derived wild-type (WT) GPR39 or zinc ion binding site mutant (H17A and H19A) GPR39 are transiently expressed in 293T cells by using lipofectamine3000 transfection kit. The activation effect of LCAS on the wild-type (WT) and mutants (H17A and H19A) is detected by calcium imaging.
HEK293T cells were seeded in a PDL-coated 96-well plate (coring Co.) at an appropriate density (about 3×10^4 cells/well) and cultured under conditions of 37° C. and 5% CO2. 24 h after seeding, when the cell density reached 60%-70%, Lipofectamine 3000 (Invitrogen) was used for transfection, in which the concentration of plasmid transfection was 50 ng per well. […] 2) Zinc ions […] on the activation of mutants H17A and H19A of GPR39 by LCAS.

The target of experiment [2] is T2, zinc ion binding site mutant (H17A and H19A) GPR39 (Mus musculus, UniProt Q5U431, H17A/H19A).
T2 construct: 3HA (N); P2A-mCherry (C); expressed in transfected cells; host or cells: HEK293T, transient (Lipofectamine 3000)
T2 sequence (Q5U431 1-456 H17A/H19A): T1 sequence (Q5U431 1-456) with H17A, H19A
As to the kind of experiment: Calcium imaging on 293T cells transiently transfected with zinc ion binding site mutant GPR39. The conditions noted are these: transiently transfected HEK293T cells.
Excerpt: as §1
The pCMV6-3HA-mGPR39-P2A-mCherry vector carrying murine-derived GPR39 gene and having a total length of about 7 Kbp was selected as the PCR template, and a site-directed mutant vector was obtained by PCR site-directed mutagenesis. With the mutation site as the centre, a forward primer m39-H17A-F and a reverse primer m39-H17A-R were designed by extending approximately 15 bp each way, which sequences were respectively shown in Table 3 below. At 1 bp upstream of the mutation site, a 15 bp complementary sequence to the forward primer was designed, and the length of the reverse primer was designed to maintain the annealing temperature of the primer at 60° C. A high-fidelity DNA polymerase (Phanta Max Super-fidelity DNA polymerase, Vazyme) was used for site-directed PCR. 5 μL cutsmart buffer (NEB) and 1 μL restriction endonuclease DpnI (NEB) were added into the PCR product for overnight digestion, and then 10 μL of the product was transferred into 50 μL DH5α for heat shock transformation. The corresponding resistant solid LB medium was selected to coat and culture the product and enable it grow overnight at 37° C. A single colony was picked for inoculation, and the bacteria were shaken to extract the plasmid which was verified by sequencing. A monoclonal vector which had been sequenced to be correct was selected and marked as pCMV6-3HA-mGPR39(H17A&H19A)-P2A-mCherry, which structure was shown in FIG. 5.
HEK293T cells were seeded in a PDL-coated 96-well plate (coring Co.) at an appropriate density (about 3×10^4 cells/well) and cultured under conditions of 37° C. and 5% CO2. […]

Experiment [3] concerns the target T3, GPR39 mutant F115A (Mus musculus, UniProt Q5U431, F115A).
T3 construct: 3HA (N); P2A-mCherry (C); expressed in transfected cells; host or cells: HEK293T, transient (Lipofectamine 3000)
T3 sequence (Q5U431 1-456 F115A): T1 sequence (Q5U431 1-456) with F115A
As to the kind of experiment: Calcium imaging of GPR39 activation site mutant, transiently transfected cells. As to conditions: FIG. 7. The source says: GPR39 mutants E90A, F115A, E116A and D330A were firstly constructed according to the method of Example 5.

Each structure is given as a SMILES string. Numbering of substitutions follows the chain as printed. Bounds are passed on as bounds.

As for `C[C@H](CCC(=O)O)[C@H]1CC[C@H]2[C@@H]3CC[C@@H]4C[C@H](OS(=O)(=O)O)CC[C@]4(C)[C@H]3CC[C@]12C` [LCAS], the EC50 (usually the midpoint of the concentration-response curve) in experiment [1] (+ 4 μM zinc ions) stood at 5.2 ± 0.7 µM; in experiment [1] (agonist alone) it was 33.1 ± 5.1 µM; in experiment [2] (+ 4 μM zinc ions) it was 8.7 ± 0.8 µM; in experiment [2] (agonist alone) it was 24 ± 0.8 µM. Also, the “activation of mutant F115A (calcium imaging)” value in experiment [3] was “activated”.
Consider `[Zn+2]` [Zinc ions, reference compound], for which the EC50 in experiment [1] (agonist alone) was 12 ± 5.3 µM; in experiment [2] (agonist alone) it was more than 100 µM.

The values above are taken from patent US12569502B2, “Use of bile acids and derivatives thereof in preparation of GPR39 agonist” (PEKING UNIVERSITY, priority 2019, dated 2026).
